Molecules are shown by their SMILES.

The target in the experiment is Beta-2 adrenergic receptor (Homo sapiens, UniProt P07550).
Beta-2 adrenergic receptor, sequence (P07550 whole entry): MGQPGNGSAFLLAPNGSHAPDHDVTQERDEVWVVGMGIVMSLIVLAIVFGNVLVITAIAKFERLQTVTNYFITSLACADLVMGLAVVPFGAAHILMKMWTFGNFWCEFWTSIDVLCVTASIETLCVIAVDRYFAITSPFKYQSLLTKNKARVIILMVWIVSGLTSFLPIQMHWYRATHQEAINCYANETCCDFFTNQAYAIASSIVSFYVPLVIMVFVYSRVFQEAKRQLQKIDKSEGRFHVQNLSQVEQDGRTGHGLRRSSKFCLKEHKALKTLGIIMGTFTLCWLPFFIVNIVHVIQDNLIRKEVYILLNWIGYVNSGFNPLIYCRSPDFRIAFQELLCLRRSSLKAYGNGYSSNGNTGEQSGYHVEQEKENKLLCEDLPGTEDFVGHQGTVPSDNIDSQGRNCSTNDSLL
Description: Displacement of [3H]DHA from human beta2 adrenoceptor by liquid scintillation counter
As usually defined, the Ki is a dissociation constant, usually derived from enzyme kinetics or from competition with a known ligand. A high value points to a looser hold on the target. `N#Cc1cc2c(OCC(O)CN3CCN(C(c4ccccc4)c4ccccc4)CC3)cccc2[nH]1` (centres undefined) showed a Ki of 57.3 nM. Compound `CC(C)(C)NCC(O)COc1cccc2[nH]cc(CC(N)=O)c12` (centres undefined) registered a Ki of 23.5 nM. On to `Cc1c[nH]c2cccc(OCC(O)CN3CCN(C(c4ccccc4)c4ccccc4)CC3)c12` (centres undefined), for which the Ki was determined as 0.311 nM. The figure for `CC(C)(C)NCC(O)COc1cccc2oc3ccccc3c12` (centres undefined) is 0.145 nM.

For the origin of these results see ChEMBL document CHEMBL1142480, “Use of the X-ray structure of the beta2-adrenergic receptor for drug discovery. Part 2: Identification of active compounds” (Bioorg Med Chem Lett, 2008).
